This is an account of results in patent publication US11654199B2 (BOLT BIOTHERAPEUTICS, INC., priority 2019, dated 2023).

For one assay, the target named is T1, human TLR7 (Homo sapiens, UniProt Q9NYK1).
T1 construct: host or cells: HEK293 reporter cells
T1 sequence (Q9NYK1 27-1049): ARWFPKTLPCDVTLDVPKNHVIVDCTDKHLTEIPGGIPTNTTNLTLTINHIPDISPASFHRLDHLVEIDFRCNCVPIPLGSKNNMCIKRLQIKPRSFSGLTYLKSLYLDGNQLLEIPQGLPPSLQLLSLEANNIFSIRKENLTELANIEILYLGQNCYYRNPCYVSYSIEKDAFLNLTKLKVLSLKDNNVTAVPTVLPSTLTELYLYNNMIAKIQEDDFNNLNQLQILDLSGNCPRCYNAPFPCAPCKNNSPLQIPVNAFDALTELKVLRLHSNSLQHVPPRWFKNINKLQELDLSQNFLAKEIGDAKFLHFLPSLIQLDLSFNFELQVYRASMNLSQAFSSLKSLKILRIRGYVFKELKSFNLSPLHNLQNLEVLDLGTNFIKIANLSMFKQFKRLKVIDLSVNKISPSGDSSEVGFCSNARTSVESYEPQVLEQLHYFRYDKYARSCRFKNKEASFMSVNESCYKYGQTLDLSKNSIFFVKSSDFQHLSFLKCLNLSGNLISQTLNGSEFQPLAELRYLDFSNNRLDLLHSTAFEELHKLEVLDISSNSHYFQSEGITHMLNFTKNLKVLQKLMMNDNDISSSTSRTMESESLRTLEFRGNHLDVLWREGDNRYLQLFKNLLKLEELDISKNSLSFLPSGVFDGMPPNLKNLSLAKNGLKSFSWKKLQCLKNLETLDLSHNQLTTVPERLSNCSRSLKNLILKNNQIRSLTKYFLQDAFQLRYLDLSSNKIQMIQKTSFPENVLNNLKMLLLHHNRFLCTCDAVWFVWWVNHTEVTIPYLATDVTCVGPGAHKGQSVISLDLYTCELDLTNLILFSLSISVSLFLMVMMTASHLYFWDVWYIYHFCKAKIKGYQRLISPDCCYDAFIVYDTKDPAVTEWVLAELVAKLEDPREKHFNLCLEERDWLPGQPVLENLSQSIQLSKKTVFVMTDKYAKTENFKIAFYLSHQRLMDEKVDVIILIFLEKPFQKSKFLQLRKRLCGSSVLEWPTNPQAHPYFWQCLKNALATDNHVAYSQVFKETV
The experiment in a line: HEK293 NFKB reporter assay, human TLR7. The format is cell-based. The note with it: HEK293 NFKB reporter cells expressing human TLR7; read-out: HEK293 hTLR7 EC50. The procedure:
(§1) Each compound was synthesized, purified, and characterized by mass spectrometry and shown to have the mass indicated. Additional experimental procedures are found in the Examples. Activity against HEK293 NFKB reporter cells expressing human TLR7 or human TLR8 was measured according to Example 202.
(§2) HEK293 reporter cells expressing human TLR7 or human TLR8 were purchased from Invivogen and vendor protocols were followed for cellular propagation and experimentation. Briefly, cells were grown to 80-85% confluence at 5% CO2 in DMEM supplemented with 10% FBS, Zeocin, and Blasticidin. Cells were then seeded in 96-well flat plates at 4×10^4 cells/well with substrate containing HEK detection medium and immunostimulatory molecules. Activity was measured using a plate reader at 620-655 nm wavelength.
(In general: In a reporter assay the amount or activity of a reporter protein is the signal.)

The target of another assay is T2, human TLR8 (Homo sapiens, UniProt Q9NR97).
T2 construct: host or cells: HEK293 reporter cells
T2 sequence (Q9NR97 27-1041): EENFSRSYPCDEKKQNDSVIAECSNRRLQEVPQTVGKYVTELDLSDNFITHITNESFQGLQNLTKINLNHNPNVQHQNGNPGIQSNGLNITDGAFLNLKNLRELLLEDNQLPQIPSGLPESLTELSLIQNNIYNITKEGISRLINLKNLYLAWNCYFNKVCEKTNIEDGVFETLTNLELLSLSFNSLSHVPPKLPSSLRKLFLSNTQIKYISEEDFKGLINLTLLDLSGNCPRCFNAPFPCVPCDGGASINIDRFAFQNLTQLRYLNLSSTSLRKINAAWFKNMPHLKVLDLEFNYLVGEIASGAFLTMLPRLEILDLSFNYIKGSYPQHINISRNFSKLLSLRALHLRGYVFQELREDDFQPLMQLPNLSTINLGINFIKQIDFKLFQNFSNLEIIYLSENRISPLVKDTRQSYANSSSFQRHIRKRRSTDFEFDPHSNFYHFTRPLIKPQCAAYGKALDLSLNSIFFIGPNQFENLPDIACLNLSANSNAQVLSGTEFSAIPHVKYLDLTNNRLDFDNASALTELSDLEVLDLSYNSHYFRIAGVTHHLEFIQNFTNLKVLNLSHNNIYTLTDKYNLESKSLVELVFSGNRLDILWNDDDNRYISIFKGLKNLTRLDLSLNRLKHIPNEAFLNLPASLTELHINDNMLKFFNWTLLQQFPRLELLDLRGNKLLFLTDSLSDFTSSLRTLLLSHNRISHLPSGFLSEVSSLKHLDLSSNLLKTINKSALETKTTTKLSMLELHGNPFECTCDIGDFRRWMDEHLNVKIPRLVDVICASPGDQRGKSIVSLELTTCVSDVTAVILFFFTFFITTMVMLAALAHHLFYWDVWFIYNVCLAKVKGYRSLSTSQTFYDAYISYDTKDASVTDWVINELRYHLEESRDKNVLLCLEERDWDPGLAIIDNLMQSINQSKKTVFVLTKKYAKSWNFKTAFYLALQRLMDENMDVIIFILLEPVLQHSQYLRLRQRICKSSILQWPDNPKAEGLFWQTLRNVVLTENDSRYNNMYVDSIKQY
The experiment in a line: HEK293 NFKB reporter assay, human TLR8. It is filed as cell-based. The note with it: HEK293 NFKB reporter cells expressing human TLR8; read-out: HEK293 hTLR8 EC50. The protocol:
as §1, §2

As to `CCCN(CCC)C(=O)C1=Cc2sc(COCCCNC(=O)OC(C)(C)C)cc2N=C(N)C1` [TAZ-66], the EC50 (as a rule, the midpoint of the concentration-response curve) turned out to be 4.42 µM at human TLR7 and 4.24 µM on human TLR8.
For `CCCN(Cc1ccc(CN)nc1C(F)(F)F)C(=O)C1=Cc2sccc2N=C(N)C1` [TAZ-70], the figures for the half-maximal effective concentration (EC50) at human TLR7 and on human TLR8 were 6.61 µM and 0.075 µM, respectively.
The matching figures for `CCCN(OCC)C(=O)C1=Cc2sc(C#CCCCNC(=O)OC(C)(C)C)cc2N=C(N)C1` [TAZ-72]: 3.15 µM and 2.83 µM.
For `CCON(CCC(F)(F)F)C(=O)C1=Cc2sccc2N=C(N)C1` [TAZ-74], the concentration giving a half-maximal response (EC50) at human TLR7 worked out at 4.11 µM; on human TLR8 it was 0.301 µM.
The matching figures for `CCCN(OCC)C(=O)C1=Cc2sc(CCCCCNC(=O)OC(C)(C)C)cc2N=C(N)C1` [TAZ-75]: 5.08 µM and 2.03 µM.
Take `CCCN(OCC)C(=O)C1=Cc2sc(CCCCCN)cc2N=C(N)C1` [TAZ-76]: the EC50 on human TLR7 is 3.44 µM; on human TLR8, 1.42 µM.
The matching figures for `NCc1ccc(CN(CCC(F)(F)F)C(=O)C2=Cc3sccc3N=C(N)C2)cc1` [TAZ-77]: 3.9 µM and 0.059 µM.
Consider `CCON(Cc1ccc(CN)cc1)C(=O)C1=Cc2sccc2N=C(N)C1` [TAZ-79], for which the EC50 was > 9 µM on human TLR7 and 4.13 µM at human TLR8.
In the case of `CCCN(CCC)C(=O)C1=Cc2sc(COCCNC(=O)OC(C)(C)C)cc2N=C(N)C1` [TAZ-80], the EC50 stood at 4 µM at human TLR7 and 3.79 µM at human TLR8.
`CCCN(Cc1ccc(CN(C)C)cc1)C(=O)C1=Cc2sc(CCCCCN)cc2N=C(N)C1` [TAZ-82]: the EC50 on human TLR7 was determined as 5 µM; on human TLR8 it was 2.87 µM.
The matching figures for `CCCN(CCc1ccc(OC)cc1)C(=O)C1=Cc2sccc2N=C(N)C1` [TAZ-83]: 3.52 µM and 3.37 µM.
Regarding `CCCN(CCC)C(=O)C1=Cc2sc(CN)cc2N=C(N)C1` [TAZ-84], the EC50 on human TLR7 worked out at 4.95 µM; on human TLR8, 1.37 µM.
The matching figures for `CCCN(NCC)C(=O)C1=Cc2sccc2N=C(N)C1` [TAZ-85]: > 9 µM and 4.03 µM.
`CCCNN(CC)C(=O)C1=Cc2sccc2N=C(N)C1` [TAZ-86]: the EC50 on human TLR7 was > 9 µM; at human TLR8 it was 4.92 µM.
The matching figures for `CCCN(Cc1ccc(CN(C)C)cc1)C(=O)C1=Cc2sccc2N=C(N)C1` [TAZ-87]: 1.94 µM and 0.214 µM.
Take `CCCN(C(=O)C1=Cc2sccc2N=C(N)C1)C(C)c1ccc(CN)cc1` (stereo not shown) [TAZ-88]: the EC50 at human TLR7 is > 9 µM; on human TLR8, 2.27 µM.
In the case of `CCCN(CCC)C(=O)C1=Cc2sc(CNC(=O)CCN)cc2N=C(N)C1` [TAZ-90], the EC50 on human TLR7 was 0.909 µM; on human TLR8, 3.19 µM.
The matching figures for `CCCN(CCC)C(=O)C1=Cc2sc(CNC(=O)CCNC(=O)OC(C)(C)C)cc2N=C(N)C1` [TAZ-91]: 4.28 µM and 4.15 µM.
The matching figures for `CCCN(CCC)C(=O)C1=Cc2sc(CNC(=O)CNC(=O)OC(C)(C)C)cc2N=C(N)C1` [TAZ-93]: 4.49 µM and 3.13 µM.
For `CCCN(OCC)C(=O)C1=Cc2sc(CN3CCNCC3)cc2N=C(N)C1` [TAZ-94], in that order: 6.2 µM and 0.101 µM.
`CCCN(Cc1ccc(CO)cc1)C(=O)C1=Cc2sccc2N=C(N)C1` [TAZ-96]: the EC50 at human TLR7 came to 2.96 µM; on human TLR8, 0.326 µM.
As for `CCCN(CCC)C(=O)C1=Cc2sc(CO)cc2N=C(N)C1` [TAZ-99], the EC50 at human TLR7 was > 9 µM; on human TLR8, 3.62 µM.
The matching figures for `CCCN(CCC)C(=O)C1=Cc2sc(CCCCCN(C)C)cc2N=C(N)C1` [TAZ-102]: 0.793 µM and 0.384 µM.
The matching figures for `CCCN(OCC(F)(F)F)C(=O)C1=Cc2sccc2N=C(N)C1` [TAZ-103]: 3.82 µM and 1.38 µM.
For `CCCN(Cc1cnc(CN)c(C(F)(F)F)c1)C(=O)C1=Cc2sccc2N=C(N)C1` [TAZ-104], in that order: 3.17 µM and 1.44 µM.
`CCCN(CCc1ccc(OC)cc1)C(=O)C1=Cc2sc(CCCCCNC(=O)OC(C)(C)C)cc2N=C(N)C1` [TAZ-106]: the half-maximal effective concentration (EC50) at human TLR7 was 4.73 µM; on human TLR8, > 9 µM.
For the molecule `CCCN(CCc1ccc(OC)cc1)C(=O)C1=Cc2sc(CCCCCN)cc2N=C(N)C1` [TAZ-107], the EC50 at human TLR7 was found to be 3.58 µM; on human TLR8, 6.98 µM.
For `CCCN(CCC)C(=O)C1=Cc2sc(CCCCCNC(=O)CCOC)cc2N=C(N)C1` [TAZ-108], in that order: 3.85 µM and 3.47 µM.
For `CCCN(C(=O)C1=Cc2sc(CCCCCN)cc2N=C(N)C1)C1CC1` [TAZ-122], in that order: 3.35 µM and 3.24 µM.
With `CCCN(CC1CC1)C(=O)C1=Cc2sc(CCCCCN)cc2N=C(N)C1` [TAZ-124], the figures for the EC50 on human TLR7 and at human TLR8 were 1.73 µM and 1.94 µM, respectively.
The matching figures for `CCCN(CC1CCC1)C(=O)C1=Cc2sc(CCCCCN)cc2N=C(N)C1` [TAZ-126]: 0.95 µM and 0.633 µM.
As to `CCCN(CCC)C(=O)C1=Cc2sc(CN3CCN(C)CC3)cc2N=C(N)C1` [TAZ-129], the EC50 came to 5.57 µM on human TLR7 and 0.848 µM at human TLR8.
The matching figures for `CCCN(CCCNC(=O)OC(C)(C)C)C(=O)C1=Cc2sc(CCCCCN)cc2N=C(N)C1` [TAZ-133, tert-butyl (3-(5-amino-2-(5-aminopentyl)-N-propyl-6H-thieno[3,2-b]azepine-7-carboxamido)propyl)carbamate]: 0.586 µM and 3.01 µM.
As for `CCCN(CCC)C(=O)C1=Cc2sc(CC(=O)OC)cc2N=C(N)C1` [TAZ-134], the EC50 on human TLR7 is 4.7 µM; at human TLR8, 3.42 µM.
For `CCCN(CCCNC(=O)C(C)(C)C)C(=O)C1=Cc2sc(CCCCCNC(=O)OC(C)(C)C)cc2N=C(N)C1` [TAZ-141], in that order: 0.38 µM and 3.58 µM.
For `CCCN(Cc1ccc(CN(C)C)cc1C(F)(F)F)C(=O)C1=Cc2sc(CCCCCN)cc2N=C(N)C1` [TAZ-144], in that order: 1.28 µM and 2.86 µM.
For the molecule `CCCN(Cc1ccc(CN(C)C)c(C(F)(F)F)n1)C(=O)C1=Cc2sc(CCCCCN)cc2N=C(N)C1` [TAZ-145], the EC50 came to 5.94 µM at human TLR7 and 4.01 µM at human TLR8.
The matching figures for `CCCN(OCCNC(=O)CC(C)(C)C)C(=O)C1=Cc2sc(CCCCCN)cc2N=C(N)C1` [TAZ-149]: 0.534 µM and 2.24 µM.
